Source: PubChem BioAssay AID504508 (Sanford-Burnham Center for Chemical Genomics, 2011)

The molecules below were run on 697 B-cell NF-kB luciferase reporter, PMA/ionomycin, 16 h (assay: NF-kB luciferase reporter inhibition in 697 B cells – B-cell specific, luminescence, set 2, SAR follow-up (AID 504508)).

IC50 [nM] | SMILES
190 | Cc1oc(-c2ccc(OC(F)(F)F)cc2)nc1CSCC(=O)O
250 | CC(C)c1ccc(-c2noc(CCC(=O)NC3CC3)n2)cc1
60 | C#CCNC(=O)CSCc1nc(-c2ccc(OCC)cc2)oc1C
40 | CCCOc1ccc(-c2nc(CSCC(=O)O)c(C)o2)cc1
80 | CCOc1ccc(-c2nc(CSCC(N)=O)c(C)o2)cc1
110 | CCCCc1ccc(-c2noc(CCC(=O)NC)n2)cc1
80 | CCCCOc1ccc(-c2nc(CSCC(=O)O)c(C)o2)cc1
50 | CCOc1ccc(-c2nc(CSCC(=O)O)c(C)o2)cc1
90 | CCCOc1ccc(-c2nc(CSCC(=O)NCc3ccco3)c(C)o2)cc1
130 | CCCCc1ccc(-c2noc(CCC(=O)NCC)n2)cc1
90 | CCCOc1ccc(-c2nc(CSCC(=O)NC3CC3)c(C)o2)cc1
